Assay results published in patent US11578049B2, “Benzoic acid compound and method for preparing the same” (Henan Genuine Biotech Co., Ltd., priority 2018, dated 2023).
“And” between values parts separate entries of the source, which are not always exact repeats. Equal values may be shown once.

Assays:
[1] = system: rats exposed to cerebral ischemia and reperfusion; test: Cerebral blood flow in rats exposed to cerebral ischemia and reperfusion (tMCAO), laser Doppler; assay type: in vivo, Sprague Dawley (SD) rats; settings: for Reperfusion/Postoperative (cerebral blood flow recovery): 2 hours ischemia, 3 mg/kg iv immediately after reperfusion; for Postoperative/Preoperative (cerebral blood flow): blood flow immediately after initiation of ischemia relative to before the operation, drug 3 mg/kg iv given immediately after reperfusion
Description: (§1) 1.2 Experimental procedure: Male Sprague Dawley (SD) rats was subjected to operation after experimental adaption for 5-7 days, with a weight of 200-250 g. The rats were anesthetized by intraperitoneal injection of 0.35 mL/100 g 10% chloral hydrate, and positioned on a temperature-controlled, operating surface. The common carotid artery was isolated from surrounding nerves to the bifurication between the external carotid artery and the internal carotid artery. The external carotid artery was then isolated. A sterile middle cerebral artery occlusion (MCAO) suture was advanced through external carotid artery into the internal carotid artery (about 18 mm±0.5 mm from the point of the carotid bifurication), effectively occluding the middle cerebral artery. The suture was withdrawn after 2 hours ischemic period to simulate clinical reperfusion. All rats were scored according to Longa scoring system, in which the rats with a total score less than 1 were withdrawn. The rats were kept on a heating blanket and allowed to recover from anesthesia. A neurobehavioral examination was performed at 24 h after awakening. Blood was drawn from each rat under anesthesia, collected in a tube containing K2-EDTA as anticoagulant for stabilizing the blood samples, centrifuged to separate supernatant from precipitate, and stored at […]. Then the rats were euthanized. The brains were cut into slices, stained with 2,3,5-triphenyltetrazolium chloride (TTC), and used to determine the infarct area. The experiment was complete within 3 days, with 3-4 rats per group daily.
1.3 Intraoperative monitoring: Transcranial measurement of cerebral blood flow was made using […] at three points, namely before the operation, immediately after the initiation of ischemia, and immediately after reperfusion.
(§2) 1.7 Drug preparation: The drugs to be tested were accurately weighed, dissolved in physiological saline to give a final concentration of 1.5 mg/mL.
(§3) 1.8 Administration method: The drugs were removed from the refrigerator and […] to room temperature before the rats were dosed. The dosing volume was 2 mL/kg.
(§4) All data was imported into an Excel worksheet, and expressed as mean±standard error of the mean. Statistical significance was determined by one-way ANOVA with Dunnett's multiple comparison test (*P<0.05, **P<0.01).

[2] = Metabolic stability measured in human liver microsomes; settings: for half-life at 2 μg/mL: human, pH 7.4; for t1/2 (elimination half-life): human liver microsomes 1.0 mg/ml, compound 2 μg/mL, NADPH 2 mM, pH 7.4, 37° C.
[3] = system: rats exposed to cerebral ischemia and reperfusion; test: Infarct area of rats exposed to cerebral ischemia and reperfusion (tMCAO), TTC staining; assay type: in vivo, Sprague Dawley (SD) rats; settings: 3 mg/kg iv immediately after reperfusion; for Cerebral infarction ratio: TTC, infarct area / total brain area; for Percentage inhibition of cerebral infarction: versus model group
Description: as §1, §2, §3
1.9.2 Cerebral infarction ratio: The rats were euthanized with chloral hydrate (330 mg/kg anesthesia), given by CO2 inhalation, and blood was drawn by cardiac puncture. The brains were removed from the skull and cut into 2 mm coronal slices using a rat brain matrix. Each slice was stained with 1% TTC at 37° C. for 5 minutes, protected from light, and were photographed. The ratio of infarct area was then determined using an image analysis software Image Pro Plus 6.0. The infarct areas were summed and divided by total brain area to yield the ratio of infarct area.
as §4

[4] = Physical properties of the salts (water absorption); assay type: physicochemical; settings: solid salt
Text: 5. The type of the salt of the compound 5 affects its physical properties. […] In addition, the excess alkali leads to the closed-loop reaction between hydroxyl group and fluorine atom. Potassium hydroxide contacts the compound 12 to yield a potassium salt which is not a solid. […] Therefore, high-purity of potassium salt and sodium salt products are not easy to obtain in this disclosure, which is unfavorable to large-scale production. Therefore, the following compounds are also included in the present invention: […]

[5] = system: mice; settings: for median lethal dose: acute toxicity test
[6] = in vivo; settings: mouse
[7] = in vitro; settings: human, microsomes, pH 7.4
[8] = text: recovery relative to preoperative, 3 mg/kg

O=C([O-])c1cc(Br)ccc1C(O)CCC1CC1.[Na+] (centres unmarked) [Compound 14]
Reperfusion/Postoperative (cerebral blood flow recovery) ([1]; recovery relative to preoperative): 88.3% | Postoperative/Preoperative (cerebral blood flow) [1]: 13.5% | half-life at 2 μg/mL ([2]; human liver microsomes): 2.44 h

O=C([O-])c1cc(Br)ccc1C(O)CCCCF.[Na+] (centres unmarked) [Compound 15]
Reperfusion/Postoperative (cerebral blood flow recovery) [1, 8]: 95.6% | Reperfusion/Postoperative (cerebral blood flow recovery) ([1]; text: recovery relative to preoperative, listed as compound 15, 3 mg/kg): 95.3% and 95.6% | Postoperative/Preoperative (cerebral blood flow) [1]: 16.8% | Cerebral infarction ratio ([3]; 3 mg/kg): 12.0% | Cerebral infarction ratio ([3]; listed as compound 15, 3 mg/kg): 12.0% | Percentage inhibition of cerebral infarction ([3]; 3 mg/kg): 75.3% | Percentage inhibition of cerebral infarction ([3]; listed as compound 15, 3 mg/kg): 75.3% | water absorption in the air [4]: easy to absorb water in the air | median lethal dose [5]: 1036 mg | LD50 [6]: 1040 mg/kg | half-life at 2 μg/mL ([2]; microsomes): 19.1 h

O=C(O)c1cc(Br)ccc1C(O)CCCCF (centres unmarked) [Compound 17]
Reperfusion/Postoperative (cerebral blood flow recovery) [1, 8]: 95.6% and 95.3% | Postoperative/Preoperative (cerebral blood flow) [1]: 15.5% | Cerebral infarction ratio [3]: 11.8% | Percentage inhibition of cerebral infarction [3]: 77.4% | water absorption in the air [4]: no water absorption | LD50 ([6]; intravenous): 1100 mg/kg | half-life at 2 μg/mL [7]: 19.3 h

CCCCC(O)c1ccccc1C(=O)[O-].[K+] (centres unmarked) [Potassium butylphthalide]
Cerebral infarction ratio ([3]; 3 mg/kg): 37.5% | Cerebral infarction ratio ([3]; listed as potassium butylphthalide, 3 mg/kg): 37.5% | Percentage inhibition of cerebral infarction ([3]; 3 mg/kg): 26.4% | Percentage inhibition of cerebral infarction ([3]; listed as butylphthalide potassium, 3 mg/kg): 26.4% | median lethal dose [5]: 373 mg | LD50 (median lethal dose) ([5]; injected via tail vein): 373 mg/kg | t1/2 (elimination half-life) ([2]; listed as Potassium Butylphthalide): <1 h | t1/2 (elimination half-life) ([2]; listed as potassium butylphthalide): less than 1 h
